Measured values reported in patent US9226503B2, “Composition and method for attraction of emerald ash borer Agrilus planipennis fairmaire (coleoptera: buprestidae)” (Her Majesty the Queen in Right of Canada, as represented by …, priority 2011, dated 2016).

How the values were obtained:
[1] = system: A. planipennis; conditions: Silk et al. 2009; cited from earlier work
[2] = system: A. planipennis antennae; test: EAG dose-response study; design: species or system Agrilus planipennis; conditions: 1 μg applied dose; n=80, 15 antennal preparations
Source text: EAG analyses were made by methods and equipment generally described by Cossé & and Bartelt (2000). EAG connections were made by inserting a glass-pipette silver-grounding electrode into the back of an excised beetle head. A second glass-pipette silver-recording probe was placed in contact with the distal end of one antenna. Both pipettes were filled with Beadle-Ephrussi (Ephrussi and Beadle 1936) saline.
For the EAG-dose-response study, (3Z)- and (3E)-lactones were purified (99.9% purity by GC/MS) by high performance liquid chromatography (HPLC) using a Waters 515 pump, a Waters R401 refractive index detector, and a 25 cm by 0.46 cm i.d. silica column (Adsorbosphere Silica 5 μm, Alltech, Deerfield, Ill.), treated with silver nitrate as described by Heath and Sonnett (1980). Solvent was 8% ether in hexane. Ten micro liters of serially diluted solutions (methylene chloride) of synthetic (3Z)-lactone and (3E)-lactone were applied to filter paper strips (0.5 cm×5 cm, Whatman no. 1). The filter paper strips were placed in 14-cm-long Pasteur pipettes, hereafter referred to as stimulus cartridges, after 5 min at room temperature. Stimulus doses tested were 0.01, 0.1, 1, 10, and 100 μg. Male and female antennae were exposed to single 0.2s puffs of odor-bearing air at 5 ml/s by placing the tip of an stimulus cartridge into a hole of a glass tube (0.7 cm ID×20 cm), 10 cm from the outlet and 11 cm away from the antennal preparation. Airflow through the glass tube was humidified and set at 10 ml/s. Puff duration and airflow speeds were maintained by a stimulus flow controller (SFC-2, Syntech, Hilversum, The Netherlands). Stimuli cartridges were selected in random order, beginning with the lowest dosages and working upward to the highest dosages. Each puffed dosage was preceded and followed by a puff from a solvent blank cartridge (filter paper plus solvent). To compensate for possible deterioration of the antennal preparation, a standard control compound, geranyl acetone (1 μg dose) preceded dosages of stimuli compound. EAG amplitudes were normalized according to the responses to geranyl acetone by dividing the amplitude of the EAG generated by the test compounds by that of geranyl acetone. Dose-response series were replicated, using different antennal preparation for each replication, and the EAG responses were expressed as a percentage of the EAG responses to geranyl acetone. Each antennal preparation was tested with freshly prepared sets of stimuli cartridges. Male and female EAG responses were submitted to analysis of variance (ANOVA) using Statistica for Windows software (StatSoft Inc. Tulsa, Okla.)).

[3] = system: A. planipennis; conditions: background, cited studies; cited from earlier work
[4] = system: A. planipennis; test: Field trapping 2011 experiment 2: (3Z)-lactone, (3Z)-hexenol and trap height factorial, dark green traps; assay type: in vivo, Agrilus planipennis; conditions: 2×2×2 factorial, lactone 3 mg/lure
Description: Two trapping experiments were conducted in green and white ash plantations (F. pennsylvanica Marsch and F. americana L.) located 40-60 km southeast of Sarnia, Ontario in 2011. Trees were 20-30 yr old, 5-8 m tall, 12-18 cm in diameter, and spaced 2-3 m apart within and between rows. Five sites were used in total: four were green ash and the fifth was a white ash plantation. Trees at four of the sites generally appeared healthy with few or no signs of decline and only a few with obvious signs and symptoms of infestation by A. planipennis. At the fifth site, obvious crown decline and signs of infestation were apparent on about one-quarter of trees.
Green prism sticky traps (0.30 cm×35.00 cm×58.75 cm) (Synergy Semiochemicals Corp., Burnaby, BC) were used in all field trials, deployed using modified umbrella rig spreaders (Zing Products, Westport, Mass.). Traps were spaced 20-25 m apart and lure treatments replicated in randomized complete block designs. Traps were deployed either using ropes tied between two trees or using a single line over a canopy branch, as described further below for each specific experimental objective. Traps were typically checked every 2 wk and A. planipennis were collected, counted, and sexed.
Experiment 2 was a 2×2×2 factorial experiment designed to test the effects of (3Z)-lactone, (3Z)-hexenol, trap height, and their interactions on numbers of A. planipennis captured on sticky, dark green (540-nm wavelength) (Francese et al 2010a) prism traps. Traps were baited with either (3Z)-lactone, (3Z)-hexenol, (3Z)-lactone+(3Z)-hexenol, or neither compound (unbaited control) and all treatments were deployed both below the canopy or in the mid-canopy. Traps placed below the canopy were suspended from ropes tied between two trees so the trap was 1-1.5 m from either tree and the top of the trap was 1.5-2 m above the ground. Traps in the canopy were deployed from a single line looped over a mid-canopy branch such that traps were 1-1.5 m from the main stem and their tops were 6 m above ground. (3Z)-Lactone was loaded onto rubber septa lures at a dosage of 3 mg/lure. Release rates of the (3Z)-lactone and (3Z)-hexenol were 60-70 μg/day and 50-100 mg/day, respectively at 25° C. Traps were in the field from 8 June-5 August, with one block at one site (Nauvoo Ranch), 5 blocks at a second site (LaSalle, the one white ash plantation), and 4 blocks at a third site (Brook Line). The 3 mg (3Z)-lactone lures were estimated to maintain adequate release rates for a minimum of three weeks and thus were replaced after three weeks; (3Z)-hexenol lures were not replaced during the experiment.
Numbers of A. planipennis captured in the trapping experiments were subjected to ANOVA separately for males and females. […]

[5] = system: A. planipennis; test: Two-choice Y-tube olfactometer assay; assay type: in vivo, Agrilus planipennis; conditions: (3Z)-hexenol 5 μg
Description: A Y-tube olfactometer (Analytical Research Systems Inc, Gainsville, Fla.) was used to test for attraction of A. planipennis to lactone isomers and host volatiles. […] Each arm was connected to a cylinder that contained the stimulus. Charcoal filtered air was passed into each arm at a flow rate of 1.2 L/min. Treatments included the pheromone alone: (3Z)-lactone (10 μg); (3E)-lactone (10 μg); and 60:40 (3E):(3Z)-lactone (10 μg). Next, we tested bark sesquiterpenes and a green leaf volatile alone: Phoebe oil (25 μg and 2.5 μg) and (3Z)-hexenol (5 μg). We then tested the pheromone combined with bark sesquiterpenes: (3Z)-lactone (10 μg)+Phoebe oil (at both 25 μg and 2.5 μg); (3E)-lactone (10 μg)+Phoebe oil (at both 25 μg and 2.5 μg). Finally, we tested the pheromone combined with the green leaf volatile: (3Z)-lactone (10 μg)+(3Z)-hexenol (5 μg); and (3E)-lactone (10 μg)+(3Z)-hexenol (5 μg). Each stimulus (l μl for single compound treatments and a total of 2 μl for two-compound treatments) was diluted in hexane, placed on a strip of filter paper and given one minute for the solvent to evaporate before being placed in the olfactometer. A second filter paper, treated with the equivalent volume of solvent was placed in the other arm of the olfactometer to serve as the control. The apparatus was rinsed with acetone after each treatment, and the arm attached to the test stimulus was randomized between replicates.
For each treatment, we tested increasing numbers of adults until we obtained a minimum of 12 beetles responding to the stimuli (either positively or negatively). To obtain this minimum, we tested 15-54 beetles per treatment. For each trial, a single A. planipennis (mature virgin male or female, >10 days old) was given ten minutes to choose between the two stimuli; adults were used only once in the bioassay. […] A chi-square test was conducted for each independent trial.

[6] = females, low dose of Phoebe oil

## CCCCCCCCCCCCCCCCC(C)CCCCCCCC (centres unmarked) [9-methylpentacosane]
[1]
  copulatory activity in males upon antennal contact (literature): stimulates full copulatory activity in males

## CC(=O)CC/C=C(\C)CCC=C(C)C [geranyl acetone, reference compound]
[2]
  mean EAG response of antennae to standard (±SD): −0.06±0.03 mV

## CC/C=C\CCO [(3Z)-hexenol]
[3]
  attractiveness to A. planipennis (literature): highly antennally active and attractive to males
[4]
  mean capture of males per trap, effect of presence of the lure component: significantly and positively affected
  mean catch of females, effect of the lure component: not
[5]; [6]
  attraction of females in Y-tube olfactometer vs hexane control: slightly attracted
  females responded in Y-tube olfactometer: 75%
[5]; males, lactone 10 μg, chi-square test
  attraction of males in Y-tube olfactometer vs hexane control: highly attracted
